# Columns and labels:
# [1] = test system: Saccharomyces cerevisiae wild type strain BY4743; experiment: AF1 gene expression analysis (microarray) of yeast treated with antifungal drugs; format: cell-based; conditions: p < 0.05; KEGG pathway mapping
# Description: Saccharomyces cerevisiae wild type strain BY4743 was purchased from American Type Culture Center (ATCC, Manassas, Va.). The yeast strain was grown in YPD or SD media. […] The cultures started from fresh single colonies were grown in 1.0 ml YPD overnight at 30° C. […] The OD600 was adjusted to 1.0 with YPD media, then 2.0 ml of each was inoculated into three 250 ml flasks, each containing 50 ml of SD media. […] The cells were kept growing for another two hours, then collected by centrifugation at 4000 rpm for 5 minutes at 4° C. Pellets were washed once with ice-cold water, then were lyophilized overnight at 4° C. […] RNA quality was determined using the Bioanalyzer 2100 and the RNA 6000 assay (Agilent Technologies, Palo Alto, Calif.) according to manufacturer's instructions. RNA concentrations were determined spectrophotometrically by measuring the absorption at 260 nm in an Ultrospec 2000 (Pharmacia Biotech, Piscataway, N.J.). […] Labeled cRNAs were evaluated using the RNA 6000 assay on the Agilent Bioanalyzer 2100. Labeled cRNA concentrations were determined spectrophotometrically by measuring the absorption at 260 nm in an Ultrospec 2000 (Pharmacia Biotech, Piscataway, N.J.). […] Each feature was determined from an array's associated pattern file and a detection algorithm. […] Data was evaluated after combining results from fluor reversal replicate hybridizations. […]
# [2] = test system: Saccharomyces cerevisiae wild type strain BY4743; experiment: AF1 combined gene expression and metabolite data mapped to KEGG reactions and pathways; format: cell-based
# Excerpt: In AF1, two different technologies were utilized: gene expression analysis (for examination of mRNA expression) and metabolite analysis. […] As noted previously, existing metabolic databases may be helpful in practicing the methods and systems of the present invention, but many databases include limitations that make their use in data analysis and pathway mapping less than straightforward. […] This caveat to KEGG makes it difficult to pinpoint the correct pathway when attempting to link a gene to a specific pathway. […] The pathway score indicates how meaningful the mapping is, or how likely it is to be correctly indicative of the pathway involved in the perturbation under examination. The method provides a pathway score based on perturbation levels of genes and/or compounds and the information content of each gene and/or compound in the pathway, i.e., a pathway score indicates the extent to which other pathways are mapped to a gene/compound. For example, imagine that two genes are perturbed in a particular experiment. One gene maps to only one pathway, giving a high degree of probability that the perturbed pathway is the one identified in the mapping. The second gene maps to three pathways. In the later example, there is only one-third the probability that the pathway identified in the mapping is the one perturbed. The present invention provides a method for calculating the pathway scores, so that more weight is given to a score of a gene or compound that maps to only one pathway than to a score of a gene or compound that maps to multiple pathways. […] Where n=the total number of genes in the pathway; ipath—count=the number of pathways containing a gene; and j=the number of genes in the pathway that are perturbed. Another factor to be considered when weighting a pathway score is the degree of perturbation. Degree of perturbation can be calculated, for example, based on a number of standard deviations from a norm, and included in an equation such as the one shown above, so that not only the number of pathways is taken into account, but also accounts for the amount of gene transcript or compound present as compared to a control. Compounds were also linked to pathways using the KEGG database. […] Of the 676 compounds under consideration, 77 were detected in the AF1 samples. […] The multiple mapping feature of KEGG makes it difficult to pinpoint the correct pathway when trying to link a compound to a specific pathway. […] A pathway score calculation is applied to the compounds to account for both information content (number of pathways a compound maps to) and perturbation level. The data were then combined to determine the number of reactions showing an enzyme and at least one compound perturbed, and to determine the number of pathways having at least one enzyme and one perturbed compound perturbed. The results of the analysis are represented in Tables 16 and 17, and were difficult to interpret, illustrating that the ability to draw conclusions from compound mapping to pathways is limited when absent additional data.
smiles,measurement,setting,value
C[C@@H]1[C@H](O)[C@@H](C)/C=C/C=C/C=C/C=C/C=C/C=C/C=C/[C@H](O[C@@H]2O[C@H](C)[C@@H](O)[C@H](N)[C@@H]2O)C[C@@H]2O[C@](O)(C[C@@H](O)C[C@@H](O)[C@H](O)CC[C@@H](O)C[C@@H](O)CC(=O)O[C@H]1C)C[C@H](O)[C@H]2C(=O)O [Amphoteracin B],# Pathways Affected by at Least One Gene,[1],97
same,Number Of Pathways Having at Least One Enzyme and One Compound Perturbed (# Reactions),[2],37
same,Number of Reactions Having an Enzyme and at Least One Compound Perturbed,[2],54

# Reference: US20040018500A1, “Methods and systems for analyzing complex biological systems” (priority 2001, published 2004)
